In ChEMBL document CHEMBL5390314, “Repurposing Azoles to Resolve Serotogenic Toxicity Associated with Linezolid to Combat Multidrug-Resistant Tuberculosis” (ACS Med Chem Lett, 2023):
≈ marks a conversion by molar mass, not a printed value.

Tests used:
[1] = system: Mycobacterium tuberculosis; test: Anti-mycobacterial activity against Mycobacterium tuberculosis H37Rv assessed as bacterial growth inhibition incubated for 7 days by microplate Alamar blue assay; type: functional; details: 168 h, time 7 day
[2] = system: Mycobacterium tuberculosis; test: Anti-mycobacterial activity against Mycobacterium tuberculosis clinical isolate assessed as bacterial growth inhibition incubated for 7 days by microplate Alamar blue assay; type: functional; details: 168 h, time 7 day
[3] = target: T1, Amine oxidase [flavin-containing] A (Homo sapiens, UniProt P21397); test: Inhibition of recombinant MAO-A (unknown origin) using kynuramine as a substrate by MAO assay; type: toxicity
T1 sequence (P21397 whole entry): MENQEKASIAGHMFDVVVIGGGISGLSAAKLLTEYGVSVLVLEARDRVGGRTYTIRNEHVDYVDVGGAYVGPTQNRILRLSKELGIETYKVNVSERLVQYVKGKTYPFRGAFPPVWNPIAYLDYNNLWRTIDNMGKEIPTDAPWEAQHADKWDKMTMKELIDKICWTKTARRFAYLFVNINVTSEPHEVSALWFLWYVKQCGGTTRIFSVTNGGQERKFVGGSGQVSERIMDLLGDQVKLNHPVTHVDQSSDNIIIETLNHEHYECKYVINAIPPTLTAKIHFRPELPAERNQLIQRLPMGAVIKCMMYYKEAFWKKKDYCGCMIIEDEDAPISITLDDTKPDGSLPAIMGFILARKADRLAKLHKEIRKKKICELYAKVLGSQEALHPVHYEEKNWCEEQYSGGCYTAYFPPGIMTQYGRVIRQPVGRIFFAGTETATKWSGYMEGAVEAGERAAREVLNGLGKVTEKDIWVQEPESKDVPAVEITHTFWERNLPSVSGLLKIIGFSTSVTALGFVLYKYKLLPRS

[4] = target: T2, Amine oxidase [flavin-containing] B (Homo sapiens, UniProt P27338); test: Inhibition of recombinant MAO-B (unknown origin) using benzylamine as a substrate by MAO assay; type: toxicity
T2 sequence (P27338 whole entry): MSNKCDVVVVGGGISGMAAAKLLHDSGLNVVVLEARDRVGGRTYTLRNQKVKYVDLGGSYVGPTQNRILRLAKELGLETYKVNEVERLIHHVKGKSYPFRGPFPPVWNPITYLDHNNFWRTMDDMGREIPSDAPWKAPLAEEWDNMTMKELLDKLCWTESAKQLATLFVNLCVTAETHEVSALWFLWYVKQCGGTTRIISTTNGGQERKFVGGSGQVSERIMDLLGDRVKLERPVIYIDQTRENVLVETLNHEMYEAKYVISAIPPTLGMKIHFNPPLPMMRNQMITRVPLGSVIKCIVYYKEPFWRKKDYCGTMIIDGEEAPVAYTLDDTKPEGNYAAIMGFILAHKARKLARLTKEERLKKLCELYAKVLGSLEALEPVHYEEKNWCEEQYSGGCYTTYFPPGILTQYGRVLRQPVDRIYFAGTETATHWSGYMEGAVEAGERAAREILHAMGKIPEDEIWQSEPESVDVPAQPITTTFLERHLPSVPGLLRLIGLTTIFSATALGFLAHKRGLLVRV

| Compound | MIC [1] | MIC50 [2] | MIC90 [2] | IC50 [3] | IC50 [4] |
| --- | --- | --- | --- | --- | --- |
| CC[C@@H]([C@H](C)O)n1ncn(-c2ccc(N3CCN(c4ccc(OC[C@@H]5CO[C@@](Cn6cncn6)(c6ccc(F)cc6F)C5)cc4)CC3)cc2)c1=O [POSACONAZOLE] | > 35 µM |  |  |  |  |
| Clc1ccccc1C(c1ccccc1)(c1ccccc1)n1ccnc1 [CLOTRIMAZOLE] | 2.26 µM (≈ 0.779 µg/mL) | 0.87 µM (≈ 0.3 µg/mL) | 1.56 µM (≈ 0.538 µg/mL) | 25.4 µM | 31.2 µM |
| CO[C@H]1/C=C/O[C@@]2(C)Oc3c(C)c(O)c4c(O)c(c(/C=N/N5CCN(C)CC5)c(O)c4c3C2=O)NC(=O)/C(C)=C\C=C\[C@H](C)[C@H](O)[C@@H](C)[C@@H](O)[C@@H](C)[C@H](OC(C)=O)[C@@H]1C [RIFAMPIN] |  | < 0.04 µM | < 0.04 µM |  |  |
| CCC(C)n1ncn(-c2ccc(N3CCN(c4ccc(OCC5COC(Cn6cncn6)(c6ccc(Cl)cc6Cl)O5)cc4)CC3)cc2)c1=O (stereo unspecified) [ITRACONAZOLE] | > 35 µM |  |  |  |  |
| Clc1ccc(COC(Cn2ccnc2)c2ccc(Cl)cc2Cl)c(Cl)c1 (stereo unspecified) [MICONAZOLE] | 3.74 µM (≈ 1.56 µg/mL) | 1 µM (≈ 0.416 µg/mL) | 1.56 µM (≈ 0.649 µg/mL) | 37.8 µM | 13.2 µM |
| CC(=O)NC[C@H]1CN(c2ccc(N3CCOCC3)c(F)c2)C(=O)O1 [LINEZOLID] | 2.31 µM (≈ 0.779 µg/mL) | 0.34 µM (≈ 0.115 µg/mL) | 0.78 µM (≈ 0.263 µg/mL) | 6.52 µM | 0.619 µM |
| NNC(=O)c1ccncc1 [ISONIAZID] |  | < 0.2 µM | < 0.2 µM |  |  |
